Source: US10968177B2, “Tricyclic sulfones as RORγ modulators” (BRISTOL-MYERS SQUIBB COMPANY, priority 2016, dated 2021)

The molecules below were run against T1, RORγ (Homo sapiens, UniProt P51449) (assay: RORγ Gal4 reporter assay (Gal4-luciferase reporter in Jurkat cells)). Conditions: inhibition of luminescence (inverse agonist activity); Jurkat cells stably over-expressing hRORγ; incubated overnight.
T1 construct: Jurkat pEx/Gal/hRORγ CLBD/HYG pG5luc/blast; expressed in transfected cells
T1 sequence (P51449 269-508 limits assumed): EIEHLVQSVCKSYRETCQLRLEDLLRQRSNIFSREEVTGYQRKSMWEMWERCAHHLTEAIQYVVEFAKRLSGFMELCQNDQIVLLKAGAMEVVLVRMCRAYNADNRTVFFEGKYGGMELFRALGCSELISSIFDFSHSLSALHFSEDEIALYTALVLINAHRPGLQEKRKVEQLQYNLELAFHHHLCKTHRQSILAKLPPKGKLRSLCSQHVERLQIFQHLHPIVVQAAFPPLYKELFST
Assay type: cell-based
Experimental: General RORγ Gal4 Reporter Assay
Inverse agonist activity of potential ligands to RORγ was measured by inhibition of luminescence in a Gal4-luciferase reporter assay in Jurkat cells.
Jurkat cells stably over-expressing the RORγ receptor, Jurkat pEx/Gal/hRORγ CLBD/HYG pG5luc/blast, were plated at a concentration of 10,000 cells/well in a 384-well solid white cell culture plate (Perkin Elmer #6007899) in assay buffer RPMI 1640 (Gibco 11875-085 1L) containing 0.1% BSA, 100×HEPES (Gibco 15360-080), 100 mM sodium pyruvate (Gibco 11360-040), […] Hygromycin B (Invitrogen 10687-010) and 10 mg/mL blasticidin (Invitrogen R210-01). 100 nL of test compound in a 3-fold serial dilution, with final concentrations ranging from 40 μM to 0.67 nM, were added to the cells which were then incubated overnight.
The following day, cells were lysed with 10 μL of Steady-Glo Luciferase Assay System (Promega Cat. No. EZ550), and analyzed immediately. IC50 values were determined. The IC50 value is defined as the concentration of test compound needed to reduce luciferase activity by 50% and is calculated using the four parameter logistic equation to fit the normalized data.
In the case of `N=S1(=O)CCC(C(=O)N2CC[C@@]3(S(=O)(=O)c4ccc(F)cc4)c4ccc(C(F)(C(F)(F)F)C(F)(F)F)cc4CC[C@@H]23)CC1` (mixture of isomers) [Example 7, ((3aR,9bR)-9b-((4-fluorophenyl)sulfonyl)-7-(perfluoropropan-2-yl)-1,2,3a,4,5,9b-hexahydro-3H-benzo[e]indol-3-yl)(1-imino-1-oxidohexahydro-1λ^6-thiopyran-4-yl)methanone], the IC50 is reported as 28 nM.
`N=S1(=O)CCC(O)(C(=O)N2CC[C@@]3(S(=O)(=O)c4ccc(F)cc4)c4ccc(C(F)(C(F)(F)F)C(F)(F)F)cc4CC[C@@H]23)CC1` (mixture of isomers) [Example 9, ((3aR)-9b-((4-fluorophenyl)sulfonyl)-7-(perfluoropropan-2-yl)-4,5-dihydro-1H-benzo[e]indol-3(2H,3aH,9bH)-yl)(4-hydroxy-1-imino-1-oxidotetrahydro-2H-thiopyran-4-yl)methanone] was tested, and the IC50 was 14 nM.
Molecule `N=S1(=O)CCC(C(=O)N2CCC3(S(=O)(=O)c4cccc(F)c4)c4ccc(C(F)(C(F)(F)F)C(F)(F)F)cc4CCC23)CC1` (single isomer, unassigned) [Example 1, (9b-((3-fluorophenyl)sulfonyl)-7-(perfluoropropan-2-yl)-1,2,3a,4,5,9b-hexahydro-3H-benzo[e]indol-3-yl)(1-imino-1-oxidohexahydro-1λ^6-thiopyran-4-yl)methanone] has an IC50 of 40 nM.
Work on `N=S1(=O)CCC(C(=O)N2CCC3(S(=O)(=O)c4cccc(Cl)c4)c4ccc(C(F)(C(F)(F)F)C(F)(F)F)cc4CCC23)CC1` (single isomer, unassigned) [Example 2] yielded an IC50 of 57 nM.
In the case of `N=S1(=O)CCC(C(=O)N2CCC3(S(=O)(=O)c4ccccc4)c4ccc(C(F)(C(F)(F)F)C(F)(F)F)cc4CCC23)CC1` (single isomer, unassigned) [Example 3], the IC50 is reported as 56 nM.
In the case of `N=S1(=O)CCC(C(=O)N2CCC3(S(=O)(=O)c4ccc(F)cc4)c4ccc(C(F)(C(F)(F)F)C(F)(F)F)cc4OCC23)CC1` (single isomer, unassigned) [Example 4], the IC50 is reported as 246 nM.
In the case of `N=S1(=O)CCC(C(=O)N2CCC3(S(=O)(=O)c4ccc(Cl)cc4)c4ccc(C(F)(C(F)(F)F)C(F)(F)F)cc4CCC23)CC1` (single isomer, unassigned) [Example 5], the IC50 is reported as 58 nM.
`N=S1(=O)CCC(C(=O)N2CCC3(S(=O)(=O)c4ccc(F)cc4)c4ccc(C(F)(C(F)(F)F)C(F)(F)F)cc4NCC23)CC1` (single isomer, unassigned) [Example 6, (9b-((4-fluorophenyl)sulfonyl)-7-(perfluoropropan-2-yl)-1,2,3a,4,5,9b-hexahydro-3H-pyrrolo[2,3-c]quinolin-3-yl)(1-imino-1-oxidohexahydro-1λ^6-thiopyran-4-yl)methanone] was tested, and the IC50 was 51 nM.
`N=S1(=O)CCC(C(=O)N2CC[C@@]3(S(=O)(=O)c4ccc(F)cc4)c4ccc(C(F)(C(F)(F)F)C(F)(F)F)cc4CC[C@@H]23)CC1` (single isomer, unassigned) [Example 11] was tested, and the IC50 was 39 nM.
`N=S1(=O)CCC(C(=O)N2CC[C@@]3(S(=O)(=O)c4ccc(F)cc4)c4ccc(C(F)(C(F)(F)F)C(F)(F)F)cc4CC[C@@H]23)CC1` (single isomer, unassigned) [Example 12] was tested, and the IC50 was 56 nM.
In the case of `CN=S1(=O)CCC(C(=O)N2CC[C@@]3(S(=O)(=O)c4ccc(F)cc4)c4ccc(C(F)(C(F)(F)F)C(F)(F)F)cc4CC[C@@H]23)CC1` (single isomer, unassigned) [Example 13], the IC50 is reported as 26 nM.
`CN=S1(=O)CCC(C(=O)N2CC[C@@]3(S(=O)(=O)c4ccc(F)cc4)c4ccc(C(F)(C(F)(F)F)C(F)(F)F)cc4CC[C@@H]23)CC1` (single isomer, unassigned) [Example 14] showed an IC50 of 40 nM.
With `CC(=O)N=S1(=O)CCC(C(=O)N2CC[C@@]3(S(=O)(=O)c4ccc(F)cc4)c4ccc(C(F)(C(F)(F)F)C(F)(F)F)cc4CC[C@@H]23)CC1` (single isomer, unassigned) [Example 15] the IC50 was 49 nM.
Molecule `CC(=O)N=S1(=O)CCC(C(=O)N2CC[C@@]3(S(=O)(=O)c4ccc(F)cc4)c4ccc(C(F)(C(F)(F)F)C(F)(F)F)cc4CC[C@@H]23)CC1` (single isomer, unassigned) [Example 16] has an IC50 of 77 nM.
For `N=S1(=O)CCC(F)(C(=O)N2CC[C@@]3(S(=O)(=O)c4ccc(F)cc4)c4ccc(C(F)(C(F)(F)F)C(F)(F)F)cc4CC[C@@H]23)CC1` (single isomer, unassigned) [Example 18], the IC50 was 52 nM.
`N=S1(=O)CCC(F)(C(=O)N2CC[C@@]3(S(=O)(=O)c4ccc(F)cc4)c4ccc(C(F)(C(F)(F)F)C(F)(F)F)cc4CC[C@@H]23)CC1` (single isomer, unassigned) [Example 19] was tested, and the IC50 was 60 nM.
With `CC1(C(=O)N2CC[C@@]3(S(=O)(=O)c4ccc(F)cc4)c4ccc(C(F)(C(F)(F)F)C(F)(F)F)cc4CC[C@@H]23)CCS(=N)(=O)CC1` (stereo partly shown) [Example 8] the IC50 was 34 nM.
`N#CC1(C(=O)N2CC[C@@]3(S(=O)(=O)c4ccc(F)cc4)c4ccc(C(F)(C(F)(F)F)C(F)(F)F)cc4CC[C@@H]23)CCS(=N)(=O)CC1` (stereo partly shown) [Example 10] was tested, and the IC50 was 48 nM.
In the case of `CN1CC2N(C(=O)C3CCS(=N)(=O)CC3)CCC2(S(=O)(=O)c2ccc(F)cc2)c2ccc(C(F)(C(F)(F)F)C(F)(F)F)cc21` (stereo not shown) [Example 17], the IC50 is reported as 21 nM.
